# Measurements from patent US5441973A, “N-acyl-4-phenyl-pyrrolidin-2-ones and method for preparing” (Arzneimittelwerk Dresden G.m.b.H., priority 1990, dated 1995).
# Experiment: not given
# Settings: from prior patents / known; cited from earlier work
row,Compound,CNS effect reported in prior publications
1,CCCC(CCC)C(=O)N1CCCC1=O [N-dipropylacetylpyrrolidin-2-one],nootropic effects
2,CCCC(CCC)C(=O)O [dipropylacetic acid],nootropic effects
3,O=C1CC(c2ccc(Cl)cc2)CN1 (stereo not drawn) [4-(4-chlorophenyl)-pyrrolidin-2-one],anticonvulsive effect
4,NC(=O)N1c2ccccc2C=Cc2ccccc21 [carbamazepine],nootropic effects

# Experiment: in vivo
# Settings: mouse, ip
row,Compound,LD50 [mg/kg]
1,O=C(COc1ccc(Cl)cc1)N1CC(c2ccc(Cl)cc2)CC1=O (stereo not drawn) [compound 5],> 2000
2,COc1ccc(C(=O)N2CC(c3ccccc3)CC2=O)cc1 (stereo not drawn) [compound 3],> 2000
3,CCCC(CCC)C(=O)N1CC(c2ccc(Cl)cc2)CC1=O (stereo not drawn) [compound 2],> 2000
4,COc1ccc(C(=O)N2CC(c3ccc(Cl)cc3)CC2=O)cc1 (stereo not drawn) [compound 4],> 2000
5,CCCC(CCC)C(=O)O [Ca-Valproate],455
6,NC(=O)CN1CCCC1=O [Piracetam],> 2000
7,CCOC(=O)C1C(=O)N(C(=O)c2ccc(OC)cc2)CC1c1ccccc1 (stereo not drawn) [compound 6],> 2000
8,CCCC(CCC)C(=O)N1CC(c2ccccc2)CC1=O (stereo not drawn) [compound 1],1630
